In PubChem BioAssay AID2696 (Johns Hopkins Ion Channel Center, 2010):

These molecules were tested against Short transient receptor potential channel 6 (Mus musculus) (UniProt Q61143) (assay: TRPC6 inhibitor potency, dose response, cell-based, mouse TRPC6, HEK293, membrane potential (AID 2696)). Conditions: TRPC6-expressing HEK293 cells, membrane potential dye fluorescence, acetylcholine-stimulated.
Chain of Short transient receptor potential channel 6 (Mus musculus) (Q61143 whole entry, looked up): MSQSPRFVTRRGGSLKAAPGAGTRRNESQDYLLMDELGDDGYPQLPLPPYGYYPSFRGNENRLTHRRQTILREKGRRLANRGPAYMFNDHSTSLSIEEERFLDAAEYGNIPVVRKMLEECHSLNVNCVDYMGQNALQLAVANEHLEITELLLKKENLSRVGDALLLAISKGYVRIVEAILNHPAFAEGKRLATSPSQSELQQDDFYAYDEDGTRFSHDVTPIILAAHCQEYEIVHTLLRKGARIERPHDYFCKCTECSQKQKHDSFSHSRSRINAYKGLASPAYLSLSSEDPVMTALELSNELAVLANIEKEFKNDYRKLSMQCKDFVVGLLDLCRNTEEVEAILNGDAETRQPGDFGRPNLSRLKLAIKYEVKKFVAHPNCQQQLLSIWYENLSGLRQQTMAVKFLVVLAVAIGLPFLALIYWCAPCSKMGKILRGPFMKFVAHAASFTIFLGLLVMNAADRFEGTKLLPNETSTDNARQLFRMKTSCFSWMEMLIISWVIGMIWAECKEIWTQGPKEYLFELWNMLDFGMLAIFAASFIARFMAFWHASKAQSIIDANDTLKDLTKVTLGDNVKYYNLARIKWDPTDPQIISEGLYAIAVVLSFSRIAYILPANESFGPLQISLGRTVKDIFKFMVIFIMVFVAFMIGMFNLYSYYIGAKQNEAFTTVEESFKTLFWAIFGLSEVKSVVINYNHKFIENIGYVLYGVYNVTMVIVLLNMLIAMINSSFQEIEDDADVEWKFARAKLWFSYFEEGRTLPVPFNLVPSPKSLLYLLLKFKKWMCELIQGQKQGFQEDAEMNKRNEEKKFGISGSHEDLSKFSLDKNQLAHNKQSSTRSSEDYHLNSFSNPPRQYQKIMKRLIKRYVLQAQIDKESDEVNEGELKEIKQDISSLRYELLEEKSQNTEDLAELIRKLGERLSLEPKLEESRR

IC50	SMILES
44.7 µM	Cn1c(=O)c(C#N)c(-c2ccc(F)cc2)c2cc(C(=O)c3cc(Cl)cc(Cl)c3O)cnc21
0.79 µM	CC[N+](C)(CC)CCOC(=O)C(O)(c1ccccc1)C1CCCCC1 (configuration not stated)
28.2 µM	C=C(C)c1cccc(C(C)(C)NC(=O)NCCN(CC)CC)c1
50.1 µM	CN(C)CCN(C(=O)c1ccc2c(c1)OCCO2)c1nc2c(Cl)cccc2s1
44.7 µM	COc1ccc2ccccc2c1CNCc1ccc(C)cc1
70.8 µM	CCCn1c(=N)n(CC(=O)c2ccc(Cl)cc2)c2ccccc21
11.2 µM	CCN(CC)CCCOC(=O)C1(c2ccccc2)CCCC1
0.04 µM	C[N+]12CCC(CC1)C(OC(=O)C(O)(c1ccccc1)c1ccccc1)C2 (configuration not stated)
50.1 µM	CCCc1cc(=S)n2c([nH]c3ccccc32)c1C#N
25.1 µM	Cc1ccc(C2N(c3ccccc3)C(=S)N3CCCN23)cc1 (configuration not stated)
19.9 µM	COc1ccccc1-n1c(-c2ccccc2)c[n+]2c1CCc1ccccc1-2
1.12 µM	OC(C#CCN1CCCCC1)(c1ccccc1)c1ccccc1
39.8 µM	C[n+]1ccc(/C=N/Nc2nc(Cl)c(C#N)c(Cl)c2Cl)cc1
39.8 µM	Cn1c(=O)[nH]c(=O)c2c1nc(N1CCCCCC1)n2CCN1CCCCCC1
14.1 µM	COc1ccc(C2NC(=O)NC(O)(C(F)(F)F)C2C(=O)c2ccc(C)cc2)cc1 (configuration not stated)
79.4 µM	Nc1ccc(C(=O)OCc2nc3ccccc3s2)cc1
35.5 µM	Cc1ccc(SC(=O)c2c([N+](=O)[O-])c(C)nn2C)cc1
70.8 µM	Cc1cccc(-c2nc(NCCCN3CCOCC3)c3ccccc3n2)c1
15.8 µM	CCN(CC)CCOC(=O)C1(c2ccccc2)CCCC1
44.7 µM	CC(C)c1ccc(N2C(=O)CC(Sc3nc4ccccc4o3)C2=O)cc1 (configuration not stated)
79.4 µM	CCCCCCn1c2c(c(=N)c3c1CCC3)CCC2
70.8 µM	O=C(CNCCC1=CCCCC1)Nc1ccc(N2CCCCCC2)cc1

IC50	SMILES
44.7 µM	COc1ccccc1OCCNCC(O)COc1cccc2[nH]c3ccccc3c12 (configuration not stated)
50.1 µM	O=C(CSc1ncccn1)N1CCN(C(c2ccccc2)c2ccccc2)CC1
44.7 µM	N=c1c(C(=O)NCC2CCCO2)cc2c(=O)n3ccccc3nc2n1Cc1ccccc1Cl (configuration not stated)
44.7 µM	Cc1ccccc1OCC(=O)NCCS(=O)(=O)N1CCN(c2ccc(F)cc2)CC1
79.4 µM	CN(C)CCCNc1nc(-c2ccccc2)nc2ccccc12
44.7 µM	CCN(CC)CCCNc1nc2ccccc2c2nc(-c3ccncc3)nn12
6.31 µM	CN(C)CCCOC(=O)C1c2ccccc2Oc2ccccc21
79.4 µM	CC[n+]1c(/C=C/Nc2ccccc2)sc2ccccc21
28.2 µM	c1ccc2c(c1)CCc1ccccc1C2=C1CCNCC1
14.1 µM	CCOc1ccc(CNc2ccc3c(c2)ncn3C(C)(C)C)cc1
8.91 µM	C[N+](C)(C)CCOC(=O)C1(c2ccccc2)CCCC1
22.4 µM	CCN(CC)CCCNc1nc(-n2nc(C)cc2C)nc2sc3c(c12)CC(C)(C)OC3
50.1 µM	COC(=O)c1ccc(NC2(C#N)C(=O)Nc3ccccc32)cc1 (configuration not stated)
39.8 µM	Cc1cc(C)c2nc(N3CCC(C(=O)NCCCN4CCCCC4)CC3)sc2c1
39.8 µM	CN(C)CCn1c(C(=O)Nc2ccccc2)cc2ccccc21
3.55 µM	CCCC(CCC)C(=O)OC1C[C@H]2CC[C@@H](C1)[N+]2(C)C (some centres not stated)
63.1 µM	CCOC(=O)c1cnc2c(Cl)cccc2c1NCCN(C)C
44.7 µM	Cc1cccn2c(=O)c3cc(C(=O)NCc4ccco4)c(=N)n(C(C)C)c3nc12
70.8 µM	Cc1ccc(Oc2ccc(NC(=O)Cn3ccsc3=N)cc2)cc1
31.6 µM	Fc1ccc2[nH]c3c(c2c1)CN(C(=S)NCc1ccccc1)CC3
3.98 µM	c1ccc(Cn2c(-c3ccccc3)c[n+]3c2SCCC3)cc1
79.4 µM	CCN(CC)CC(=O)Nc1ccc(-c2nc3cc(NC(=O)CN(CC)CC)ccc3o2)cc1

IC50	SMILES
56.2 µM	Clc1ccc2c(N3CCCC3)ccnc2c1
3.98 µM	OC(C#CCN1CCCC1)(c1ccccc1)c1ccccc1
19.9 µM	Cc1ccc(C(O)(CCN2CCCCC2)c2ccccc2)cc1 (configuration not stated)
31.6 µM	COC(=O)c1ccc(Nc2cc(C)nc3ccc(C)cc23)cc1
39.8 µM	COCCNC(=O)c1cc2c(=O)n3cccc(C)c3nc2n(Cc2ccncc2)c1=N
2.82 µM	CC1CCC(C(C)C)C(OCC[N+](C)(C)C)C1 (configuration not stated)
0.32 µM	CN1C2CCC1CC(OC(c1ccccc1)c1ccccc1)C2 (configuration not stated)
44.7 µM	Cc1ccccc1Nc1nc(N)c2ccccc2n1
70.8 µM	COc1ccc(Nc2ccnc3ccccc23)cc1
6.31 µM	CCCCn1c(-c2ccc([N+](=O)[O-])cc2)n[nH]c1=S
17.8 µM	Cc1ccc(N2C(=O)CSC2c2c(F)cccc2Cl)cc1 (configuration not stated)
44.7 µM	Cc1cccc(C(=O)NNC2=C(C(=O)C(F)(F)F)CCC2)c1O
50.1 µM	CC1(C)CC(N=c2cc(-c3ccccc3)oc3ccc(Cl)cc23)CC(C)(C)N1
2 µM	CC(C)[N+](C)(C)CC#CC(O)(c1ccccc1)c1ccccc1
44.7 µM	CCN(CC)CCSc1nnc2c3ccccc3n(Cc3ccccc3)c2n1
70.8 µM	Nc1c2c(nc3ccccc13)N(C1CCCCC1)CC2
70.8 µM	Cc1cccn2c(=O)c3cc(C(=O)NC(C)C)c(=N)n(Cc4ccncc4)c3nc12
15.8 µM	C[N+]1(CCOC(=O)C2(c3ccccc3)CCCC2)CCCCC1
39.8 µM	COc1ccc(N2CCN(S(=O)(=O)CCNC(=O)COc3ccccc3C)CC2)cc1
17.8 µM	Cc1ccc(S(=O)(=O)n2c(N)nc3ccccc32)cc1
0.03 µM	C[N+]1(C)[C@@H]2CC(OC(=O)[C@H](CO)c3ccccc3)C[C@H]1[C@@H]1O[C@@H]12 (some centres not stated)
12.6 µM	CCOC(=O)c1sc(=S)n(-c2ccccc2Cl)c1SC

IC50	SMILES
39.8 µM	Cc1onc(-c2c(F)cccc2Cl)c1C(=O)NC(=S)Nc1c(C)n(C)n(-c2ccccc2)c1=O
79.4 µM	COc1ccc2nc(C)cc(Nc3ccc(N4CCN(C)CC4)cc3)c2c1
15.8 µM	CC[N+](C)(CC)CCC/C(=N/O)C(O)(c1ccccc1)c1ccccc1
56.2 µM	CN(C)CCNS(=O)(=O)c1ccc(N2CCN(c3ccc(F)cc3)CC2)c([N+](=O)[O-])c1
50.1 µM	Brc1ccc(-c2c[n+]3c(n2-c2ccccc2)SCC3)cc1
0.89 µM	C[N+]1(C)CCCC(OC(=O)C(O)(c2ccccc2)c2ccccc2)C1 (configuration not stated)
44.7 µM	COc1cc(-c2nc3ccc(C)cn3c2Nc2ccc3c(c2)OCCO3)ccc1O
31.6 µM	CCN(CC)CCNC(=O)c1ccc(NC(=O)c2cccc(S(=O)(=O)Nc3ccc(C)cc3)c2)cc1
10 µM	CN(C)C/C=C/C(O)(c1ccccc1)c1ccccc1
39.8 µM	COc1cc(/C=N/Nc2nc(N3CCCC3)nc(N3CCCC3)n2)ccc1OCc1ccccc1F
1.58 µM	CC[N+](C)(C)CC/C=C1/c2ccccc2Sc2ccc(Cl)cc21
12.6 µM	CCCCCC[N+](C)(C)CC/C=C1/c2ccccc2Sc2ccc(Cl)cc21
44.7 µM	CCN(CC)CCSc1nnc(Nc2ccccc2)n1-c1ccccc1
11.2 µM	CC(C)C(O)(C#CCN1CCCCC1)c1ccccc1 (configuration not stated)
50.1 µM	CCCN(CC1CC1)C(=O)CCc1nnc(CCc2c[nH]c3ccccc23)o1
50.1 µM	COC(=O)C(NC(=O)c1ccc(C)cc1)(Nc1cccc(C)n1)C(F)(F)F (configuration not stated)
14.1 µM	Cc1c(C(=O)OC(C)CCN(C)C)oc2ccccc12 (configuration not stated)
1.78 µM	CCN(CC)CCOC(=O)C1c2ccccc2Oc2ccccc21
28.2 µM	CSCc1cc(N(C)c2ccccc2)nc(-c2ccccn2)n1
44.7 µM	NCCCC(=O)N1c2ccccc2Sc2ccccc21
79.4 µM	COc1ccc(C(=O)C2CCCN(Cc3cccn3-c3ccccn3)C2)cc1F (configuration not stated)
44.7 µM	Cc1ccc(CNc2ccc3c(c2)ncn3C(C)(C)C)cc1

IC50	SMILES
70.8 µM	CC(C)(C)NCc1cc(Br)ccc1OCc1cccs1
11.2 µM	CN1CCN(c2ncccc2S(=O)(=O)N2CCCCC2)CC1
25.1 µM	O=[N+]([O-])c1ccc(N=Nc2c(Cl)cc(O)cc2Cl)cc1
44.7 µM	O=C(c1ccc(C(=O)N2CCCc3ccccc32)s1)N1CCCc2ccccc21
12.6 µM	CC[N+]1(C)CCC(=C2c3ccccc3CC(=O)c3sccc32)CC1 (configuration not stated)
15.8 µM	Oc1ccc(CN2CCc3ccccc3C2)c2cccnc12
44.7 µM	CC(C)C(O)(C#CCN1CCCCCC1)c1ccccc1 (configuration not stated)
44.7 µM	O=C(NCC(=O)N(c1ccc2c(c1)OCCO2)C(C(=O)NC1CCCC1)c1ccco1)c1ccco1 (configuration not stated)
70.8 µM	CCCCc1nc2ccccc2c(N)c1CCC (tested in a mixture with another compound)
70.8 µM	CCN(CC)CC(=O)Nc1cc(N(C)C)nc2ccccc12
50.1 µM	N=c1c(C(=O)NCCN2CCOCC2)cc2c(=O)n3ccccc3nc2n1CCc1ccccc1
8.91 µM	CC(/C=N/n1c(-c2n[nH]c3c2CCC3)n[nH]c1=S)=C\c1ccco1
15.8 µM	O=C(OCCN1CCCC1)C1(c2ccccc2)CCCC1
39.8 µM	Cc1c(CCOC(=O)C23CC4CC(CC(C4)C2)C3)sc[n+]1Cc1ccccc1
35.5 µM	O=C(NNS(=O)(=O)c1ccc(Cl)cc1)C1CCN(Cc2ccccc2)CC1
39.8 µM	OC(C#CCN1CCCCCC1)(c1ccccc1)c1cccnc1 (configuration not stated)
31.6 µM	CCOC(=O)c1[nH]c2ccc(F)cc2c1NC(=O)CN1CCN(C/C=C/c2ccccc2)CC1
25.1 µM	O=c1cc(C(F)(F)F)[nH]c2c(C(F)(F)F)cccc12
50.1 µM	COc1cc2c(cc1O)CC[n+]1cc3c(OC)c(OC)ccc3cc1-2

SMILES	IC50
COc1ccc2ccccc2c1CNCCc1ccccc1	50.1 µM
Cc1ccc(C[n+]2c(-c3ccc(C)cc3)cc(-c3ccc(C)cc3)cc2-c2ccc(C)cc2)cc1	79.4 µM
Cc1ccccc1CCNCc1cc2cccc(C)c2[nH]c1=O	50.1 µM
CCC(CO)(C(=O)OC1C[N+]2(C)CCC1CC2)c1ccccc1 (configuration not stated)	1.58 µM
C[N+]1(C)CCC(OC(=O)C(c2ccccc2)c2ccccc2)CC1	0.28 µM
CC[N+](CC)(CC)CCCOC(=O)C(O)(c1ccccc1)C1CCCCC1 (configuration not stated)	0.06 µM
OC(Cn1c2ccccc2c2ccccc21)C[n+]1cccc2ccccc21 (configuration not stated)	35.5 µM
Cc1ccc(-c2cc(-c3ccc(C)cc3)[n+](-c3ccccc3)c(-c3ccc(C)cc3)c2)cc1	50.1 µM
CCC(CO)(C(=O)OC1CC2CCC(C1)N2C)c1ccccc1 (configuration not stated)	0.09 µM
C[N+](C)(N)CCOC(=O)C(O)(c1ccccc1)C1CCCCC1 (configuration not stated)	0.32 µM
